# Experimental data: ChEMBL document CHEMBL3885881, “DrugMatrix”
# Organism: Rattus norvegicus
# Assay: DrugMatrix - Regimen: Daily Repeat
# Format: toxicity, organism-based, Sprague-Dawley
# Design: regimen Daily Repeat, gender Male, age 6-8 weeks
# Settings: in vivo, po, route oral GAVAGE, vehicle .5 % CMC; for BASOPHIL / EOSINOPHIL / ERYTHROCYTE COUNT / HEMATOCRIT / HEMOGLOBIN / LEUKOCYTE COUNT / LYMPHOCYTE / MEAN CORPUSCULAR HEMOGLOBIN / MEAN CORPUSCULAR HEMOGLOBIN CONCENTRATION / MEAN CORPUSCULAR VOLUME / MONOCYTE / NEUTROPHIL / PLATELET COUNT: tissue Blood; for ALANINE AMINOTRANSFERASE / ALKALINE PHOSPHATASE / ASPARTATE AMINOTRANSFERASE / BLOOD UREA NITROGEN / CHLORIDE / CHOLESTEROL / CREATINE PHOSPHOKINASE / CREATININE / GLUCOSE / PHOSPHORUS / POTASSIUM / SODIUM / TOTAL PROTEIN: tissue Plasma
# [1] = 0 mg/kg, 72 h, dose level Control, time 3 day
# [2] = 0 mg/kg, 120 h, dose level Control, time 5 day
# [3] = 30 mg/kg, 72 h, dose level Low, time 3 day
# [4] = 30 mg/kg, 120 h, dose level Low, time 5 day
smiles,measurement,setting,value
CCN(CC)CCNC(=O)c1cc(Cl)c(N)cc1OC [METOCLOPRAMIDE],BASOPHIL,[1],0%
same,EOSINOPHIL,[1],0.4%
same,ERYTHROCYTE COUNT,[1],6.43 x10E6/uL
same,HEMATOCRIT,[1],37.36%
same,HEMOGLOBIN,[1],13.98 G/DL
same,LEUKOCYTE COUNT,[1],13 x10E3/uL
same,LYMPHOCYTE,[1],81.4%
same,MEAN CORPUSCULAR HEMOGLOBIN,[1],21.9 pg
same,MEAN CORPUSCULAR HEMOGLOBIN CONCENTRATION,[1],37.4 G/DL
same,MEAN CORPUSCULAR VOLUME,[1],58.52 fL
same,MONOCYTE,[1],0.4%
same,NEUTROPHIL,[1],18%
same,PLATELET COUNT,[1],1386 x10E3/uL
same,ALANINE AMINOTRANSFERASE,[1],39.33 u/L
same,ALKALINE PHOSPHATASE,[1],283.83 u/L
same,ASPARTATE AMINOTRANSFERASE,[1],69.5 u/L
same,BLOOD UREA NITROGEN,[1],14.83 mg/dL
same,CHLORIDE,[1],107.33 MEQ/L
same,CHOLESTEROL,[1],75.17 mg/dL
same,CREATINE PHOSPHOKINASE,[1],107.67 u/L
same,CREATININE,[1],0.48 mg/dL
same,GLUCOSE,[1],172.5 mg/dL
same,PHOSPHORUS,[1],10.48 mg/dL
same,POTASSIUM,[1],6.9 MEQ/L
same,SODIUM,[1],152.33 MEQ/L
same,TOTAL PROTEIN,[1],5.9 G/DL
same,BASOPHIL,[2],0%
same,EOSINOPHIL,[2],0.4%
same,ERYTHROCYTE COUNT,[2],6.96 x10E6/uL
same,HEMATOCRIT,[2],41.12%
same,HEMOGLOBIN,[2],15.24 G/DL
same,LEUKOCYTE COUNT,[2],11.06 x10E3/uL
same,LYMPHOCYTE,[2],88.6%
same,MEAN CORPUSCULAR HEMOGLOBIN,[2],21.96 pg
same,MEAN CORPUSCULAR HEMOGLOBIN CONCENTRATION,[2],37.1 G/DL
same,MEAN CORPUSCULAR VOLUME,[2],59.12 fL
same,MONOCYTE,[2],0.2%
same,NEUTROPHIL,[2],10.8%
same,PLATELET COUNT,[2],1155.8 x10E3/uL
same,ALANINE AMINOTRANSFERASE,[2],36.33 u/L
same,ALKALINE PHOSPHATASE,[2],340.33 u/L
same,ASPARTATE AMINOTRANSFERASE,[2],68.33 u/L
same,BLOOD UREA NITROGEN,[2],15 mg/dL
same,CHLORIDE,[2],108.17 MEQ/L
same,CHOLESTEROL,[2],74.67 mg/dL
same,CREATINE PHOSPHOKINASE,[2],110.67 u/L
same,CREATININE,[2],0.47 mg/dL
same,GLUCOSE,[2],171.33 mg/dL
same,PHOSPHORUS,[2],10.05 mg/dL
same,POTASSIUM,[2],6.7 MEQ/L
same,SODIUM,[2],155.5 MEQ/L
same,TOTAL PROTEIN,[2],6.33 G/DL
same,BASOPHIL,[3],0%
same,EOSINOPHIL,[3],0%
same,ERYTHROCYTE COUNT,[3],6.75 x10E6/uL
same,HEMATOCRIT,[3],41.55%
same,HEMOGLOBIN,[3],15.45 G/DL
same,LEUKOCYTE COUNT,[3],12.45 x10E3/uL
same,LYMPHOCYTE,[3],81%
same,MEAN CORPUSCULAR HEMOGLOBIN,[3],22.95 pg
same,MEAN CORPUSCULAR VOLUME,[3],61.7 fL
same,MONOCYTE,[3],0%
same,NEUTROPHIL,[3],19%
same,PLATELET COUNT,[3],1187 x10E3/uL
same,ALANINE AMINOTRANSFERASE,[3],40.67 u/L
same,ALKALINE PHOSPHATASE,[3],299.33 u/L
same,ASPARTATE AMINOTRANSFERASE,[3],95.67 u/L
same,BLOOD UREA NITROGEN,[3],12.33 mg/dL
same,CHLORIDE,[3],107.33 MEQ/L
same,CHOLESTEROL,[3],78.67 mg/dL
same,CREATINE PHOSPHOKINASE,[3],421.67 u/L
same,CREATININE,[3],0.77 mg/dL
same,GLUCOSE,[3],175.67 mg/dL
same,PHOSPHORUS,[3],11.53 mg/dL
same,POTASSIUM,[3],7.6 MEQ/L
same,SODIUM,[3],150.67 MEQ/L
same,TOTAL PROTEIN,[3],6.13 G/DL
same,BASOPHIL,[4],0%
same,EOSINOPHIL,[4],0%
same,ERYTHROCYTE COUNT,[4],7 x10E6/uL
same,HEMATOCRIT,[4],41.57%
same,HEMOGLOBIN,[4],15.33 G/DL
same,LEUKOCYTE COUNT,[4],13.57 x10E3/uL
same,LYMPHOCYTE,[4],91%
same,MEAN CORPUSCULAR HEMOGLOBIN,[4],21.93 pg
same,MEAN CORPUSCULAR HEMOGLOBIN CONCENTRATION,[4],36.87 G/DL
same,MEAN CORPUSCULAR VOLUME,[4],59.4 fL
same,MONOCYTE,[4],0.33%
same,NEUTROPHIL,[4],8.67%
same,PLATELET COUNT,[4],1231.67 x10E3/uL
same,ALANINE AMINOTRANSFERASE,[4],41 u/L
same,ALKALINE PHOSPHATASE,[4],236.67 u/L
same,ASPARTATE AMINOTRANSFERASE,[4],70.33 u/L
same,BLOOD UREA NITROGEN,[4],14.67 mg/dL
same,CHLORIDE,[4],104.33 MEQ/L
same,CHOLESTEROL,[4],63.33 mg/dL
same,CREATINE PHOSPHOKINASE,[4],157 u/L
same,CREATININE,[4],0.5 mg/dL
same,GLUCOSE,[4],156.33 mg/dL
same,PHOSPHORUS,[4],9.97 mg/dL
same,POTASSIUM,[4],6.37 MEQ/L
same,SODIUM,[4],151.67 MEQ/L
same,TOTAL PROTEIN,[4],6.23 G/DL
